Like-named read-outs stand apart in the source and are kept apart here. Where a SMILES comes first, the peptide text is derived from it. [ ]: non-standard residue; d: D form. The star is where a group is joined. Sta = CC(C)C[C@H](N)[C@@H](O)CC(=O)O; Isovaleryl = CC(C)CC(=O)*
Assays:
ruLAP2 = ruLAP2 (Trichophyton rubrum, UniProt Q5QHG6); type: biochemical; details: for effect of inhibitor on ruLAP2 activity: Leu-AMC 5 mM, inhibitor concentrations
Experimental: (§1) Inhibitors and metallic cations were pre-incubated with the enzymes for 15 min at 37° C. Then, Leu-AMC at a 5 mM final concentration was added. After further incubation for 60 min, enzyme activity was measured as described above. The inhibitors and their concentrations tested purified LAPs were: 500 μM amastatin (Bachem), 40 μM benzamidine (Sigma), 500 μM bestatin (Bachem), 5 mM/l mM EDTA (Sigma). 100 μM E-64 (L-trans-epoxysuccinyl-leu-4-guanidinobutylamide) (Bachem), 100 μM leupeptin (Sigma), 5 mM/1 mM ortho-phenanthroline (Sigma), 500 μM p-chloromercuribenzoic acid (Sigma), 100 μM pepstatin A (Sigma), 40 μM PMSF (Sigma), 20 μM TLCK (Roche Diagnostics), and 20 μM TPCK (Roche Diagnostics).

fuLAP2 = type: biochemical, Aspergillus fumigatus; details: for fuLAP2 hydrolytic activity, percentage of control without any cation / fuLAP2 hydrolytic activity, percentage of control without inhibitor: Leu-MCA substrate; for effect of divalent cation on fuLAP2 activity: Leu-AMC substrate; for fuLAP2 hydrolytic activity, percentage of control without inhibitor: inhibitor 100 μM
Experimental: as §1

fuLAP1 = fuLAP1 (Aspergillus fumigatus, UniProt Q5VJG6); type: biochemical; details: for effect of divalent cation on fuLAP1 activity: Leu-AMC substrate
Experimental: as §1

ruLAP1 = ruLAP1 (Trichophyton rubrum, UniProt Q5QHG5); type: biochemical; details: for effect of inhibitor on ruLAP1 activity: Leu-AMC 5 mM, inhibitor concentrations, pepstatin 0.1 mM
Experimental: as §1

[1] = target: T1, pkLAP (microsomal LAP from porcine kidney) (Sus scrofa, UniProt P15145); assay: Effect of chemical reagents (inhibitors, metallic cations) on LAP activity with Leu-AMC; type: biochemical
T1 construct: purchased Sigma; host or cells: porcine kidney
T1 sequence (P15145 1-963): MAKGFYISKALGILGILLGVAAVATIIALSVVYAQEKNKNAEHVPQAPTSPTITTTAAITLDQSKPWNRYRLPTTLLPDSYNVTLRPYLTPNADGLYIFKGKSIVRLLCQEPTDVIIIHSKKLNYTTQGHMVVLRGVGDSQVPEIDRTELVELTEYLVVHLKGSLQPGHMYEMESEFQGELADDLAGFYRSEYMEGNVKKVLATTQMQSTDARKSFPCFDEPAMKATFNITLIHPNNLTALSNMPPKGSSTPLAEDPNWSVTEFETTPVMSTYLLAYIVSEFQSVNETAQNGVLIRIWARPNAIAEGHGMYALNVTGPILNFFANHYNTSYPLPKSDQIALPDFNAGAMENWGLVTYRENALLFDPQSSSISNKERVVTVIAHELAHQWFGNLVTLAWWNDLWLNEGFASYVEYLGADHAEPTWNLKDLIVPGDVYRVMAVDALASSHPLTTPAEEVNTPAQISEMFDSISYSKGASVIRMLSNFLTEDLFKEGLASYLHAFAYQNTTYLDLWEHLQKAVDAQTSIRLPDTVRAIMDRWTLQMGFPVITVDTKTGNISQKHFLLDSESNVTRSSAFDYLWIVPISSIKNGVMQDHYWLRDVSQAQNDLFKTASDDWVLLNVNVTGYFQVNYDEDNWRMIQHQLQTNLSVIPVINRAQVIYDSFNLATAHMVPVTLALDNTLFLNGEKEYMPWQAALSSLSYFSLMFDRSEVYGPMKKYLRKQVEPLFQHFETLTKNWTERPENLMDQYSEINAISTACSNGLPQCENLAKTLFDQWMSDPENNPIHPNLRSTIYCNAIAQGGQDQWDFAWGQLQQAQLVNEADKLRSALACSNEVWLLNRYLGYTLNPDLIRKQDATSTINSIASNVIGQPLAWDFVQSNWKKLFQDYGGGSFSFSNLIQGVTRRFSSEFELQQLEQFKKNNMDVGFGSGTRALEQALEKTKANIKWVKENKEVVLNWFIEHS
Experimental: as §1

[2] = cation salt 0.5 mM, Leu-MCA substrate
[3] = cation salt 1 mM, Leu-MCA substrate
[4] = inhibitor 100 μM, Leu-MCA substrate

Sequence of ruLAP2 (Q5QHG6 22-495): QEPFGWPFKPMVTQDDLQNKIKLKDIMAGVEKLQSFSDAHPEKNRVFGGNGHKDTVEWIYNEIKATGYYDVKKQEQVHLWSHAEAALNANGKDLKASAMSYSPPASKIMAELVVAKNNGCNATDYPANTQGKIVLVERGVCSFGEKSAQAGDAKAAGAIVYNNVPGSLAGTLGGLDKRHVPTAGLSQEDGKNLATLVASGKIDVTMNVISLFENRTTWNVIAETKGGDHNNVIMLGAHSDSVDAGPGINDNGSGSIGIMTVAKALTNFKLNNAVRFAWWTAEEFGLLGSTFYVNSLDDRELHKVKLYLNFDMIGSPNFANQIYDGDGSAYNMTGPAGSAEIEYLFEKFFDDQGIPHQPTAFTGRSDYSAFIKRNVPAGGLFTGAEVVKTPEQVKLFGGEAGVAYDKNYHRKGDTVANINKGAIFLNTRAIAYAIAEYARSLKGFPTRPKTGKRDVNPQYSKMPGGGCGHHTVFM
Sequence of fuLAP1 (Q5VJG6 15-388, looked up, natural form): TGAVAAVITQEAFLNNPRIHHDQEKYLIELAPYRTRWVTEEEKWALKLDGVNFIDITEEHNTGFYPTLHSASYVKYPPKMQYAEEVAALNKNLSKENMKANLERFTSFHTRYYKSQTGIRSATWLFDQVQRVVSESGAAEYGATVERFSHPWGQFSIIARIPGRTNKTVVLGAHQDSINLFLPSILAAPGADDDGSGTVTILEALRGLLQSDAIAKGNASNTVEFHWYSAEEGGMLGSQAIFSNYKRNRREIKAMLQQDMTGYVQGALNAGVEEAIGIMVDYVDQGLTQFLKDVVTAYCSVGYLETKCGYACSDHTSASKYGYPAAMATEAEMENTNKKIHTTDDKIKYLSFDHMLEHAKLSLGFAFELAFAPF
Sequence of ruLAP1 (Q5QHG5 19-373): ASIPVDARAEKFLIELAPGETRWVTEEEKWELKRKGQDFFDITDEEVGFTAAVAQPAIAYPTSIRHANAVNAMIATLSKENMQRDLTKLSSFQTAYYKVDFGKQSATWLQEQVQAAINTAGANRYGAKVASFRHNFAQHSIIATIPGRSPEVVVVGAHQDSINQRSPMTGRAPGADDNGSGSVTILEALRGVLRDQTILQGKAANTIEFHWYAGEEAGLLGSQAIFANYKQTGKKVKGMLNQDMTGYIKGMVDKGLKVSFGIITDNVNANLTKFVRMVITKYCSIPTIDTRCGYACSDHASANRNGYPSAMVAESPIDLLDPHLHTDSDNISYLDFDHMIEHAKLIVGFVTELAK

Compound	fuLAP2 hydrolytic activity, percentage of control without any cation (fuLAP2; cation salt 0.5 mM)	fuLAP2 hydrolytic activity, percentage of control without any cation (fuLAP2; cation salt 1 mM)	ruLAP2 hydrolytic activity, percentage of control without any cation (ruLAP2; [2])	ruLAP2 hydrolytic activity, percentage of control without any cation (ruLAP2; [3])	fuLAP1 hydrolytic activity, percentage of control without any cation (fuLAP1; [2])	fuLAP1 hydrolytic activity, percentage of control without any cation (fuLAP1; [3])	ruLAP1 hydrolytic activity, percentage of control without any cation (ruLAP1; [2])	ruLAP1 hydrolytic activity, percentage of control without any cation (ruLAP1; [3])	pkLAP hydrolytic activity, percentage of control without any cation [1, 2]	pkLAP hydrolytic activity, percentage of control without any cation [1, 3]	also measured
CC(C)C[C@H](NC(=O)[C@H]1O[C@@H]1C(=O)O)C(=O)NCCCCN=C(N)N (relative stereo) [E64, L-trans-epoxysuccinyl-leu-4-guanidinobutylamide]											effect of inhibitor on ruLAP2 activity (ruLAP2): blunted the activity
[Ca+2].[Cl-].[Cl-] [CaCl2]	110.0%	165.4%	126.6%	141.9%	54.9%	43.3%	151.7%	175.6%	177.4%	161.8%	
[Ca+2] [Ca^++]											effect of divalent cation on fuLAP2 activity (fuLAP2): activated; effect of divalent cation on fuLAP1 activity (fuLAP1): inhibited
[Cl][Cu][Cl] [Cu^++, CuCl2]	68.9%	73.6%	50.9%	34.7%	25.8%	17.0%			1422.0%	1092.4%	effect of divalent cation on pkLAP activity ([1]; Leu-AMC substrate): highly activated
CC(C)C[C@H](NC(=O)[C@H]1O[C@@H]1C(=O)O)C(=O)NCCCCN=C(N)N [E 64]											fuLAP2 hydrolytic activity, percentage of control without inhibitor (fuLAP2): 71%; ruLAP2 hydrolytic activity, percentage of control without inhibitor (ruLAP2; [4]): 34%; fuLAP1 hydrolytic activity, percentage of control without inhibitor (fuLAP1; [4]): 190%; ruLAP1 hydrolytic activity, percentage of control without inhibitor (ruLAP1; [4]): 103%; pkLAP hydrolytic activity, percentage of control without inhibitor [1, 4]: 93%
O=C(O)CN(CCN(CC(=O)O)CC(=O)O)CC(=O)O [EDTA]											effect of inhibitor on ruLAP2 activity (ruLAP2): more sensitive; effect of inhibitor on ruLAP1 activity (ruLAP1): more sensitive
[Cl-].[Cl-].[Mg+2] [MgCl2]	97.6%	108.0%	121.2%	110.2%	68.5%	72.6%	129.9%	132.6%	130.1%	146.1%	
[Cl][Mn][Cl] [Mn^++, MnCl2]	84.3%	140.2%	77.5%	86.8%	25.9%	28.4%	120.7%	105.2%	157.6%	165.8%	effect of divalent cation on fuLAP2 activity (fuLAP2): activated; effect of divalent cation on fuLAP1 activity (fuLAP1): inhibited
CC(C)CC(=O)N[C@H](C(=O)N[C@H](C(=O)N[C@@H](CC(C)C)[C@@H](O)CC(=O)N[C@@H](C)C(=O)N[C@@H](CC(C)C)[C@@H](O)CC(=O)O)C(C)C)C(C)C [pepstatin, pepstatin A] (Isovaleryl-VV[Sta]A[Sta]-OH)											fuLAP2 hydrolytic activity, percentage of control without inhibitor (fuLAP2): 73%; effect of inhibitor on fuLAP1 activity (fuLAP1; Leu-AMC 5 mM, inhibitor concentrations, pepstatin 0.1 mM): some sensitivity; effect of inhibitor on ruLAP1 activity (ruLAP1): some sensitivity

Reference: US7943340B2, “Fungal dipeptidyl peptidase IV (DPPIV) enzyme for reagent use” (priority 2003, dated 2011)
